We go through twelve compounds from US12129246B1, “Hydroquinazoline derivatives for the treatment of a disease or disorder” (Novartis AG, priority 2023, dated 2024).

Read-outs that look alike come from different tables or passages of the source.

One experiment deals with T1, human NPR1 (Homo sapiens, UniProt P16066).
T1 construct: host or cells: CHO-K1
T1 sequence (P16066 33-1061): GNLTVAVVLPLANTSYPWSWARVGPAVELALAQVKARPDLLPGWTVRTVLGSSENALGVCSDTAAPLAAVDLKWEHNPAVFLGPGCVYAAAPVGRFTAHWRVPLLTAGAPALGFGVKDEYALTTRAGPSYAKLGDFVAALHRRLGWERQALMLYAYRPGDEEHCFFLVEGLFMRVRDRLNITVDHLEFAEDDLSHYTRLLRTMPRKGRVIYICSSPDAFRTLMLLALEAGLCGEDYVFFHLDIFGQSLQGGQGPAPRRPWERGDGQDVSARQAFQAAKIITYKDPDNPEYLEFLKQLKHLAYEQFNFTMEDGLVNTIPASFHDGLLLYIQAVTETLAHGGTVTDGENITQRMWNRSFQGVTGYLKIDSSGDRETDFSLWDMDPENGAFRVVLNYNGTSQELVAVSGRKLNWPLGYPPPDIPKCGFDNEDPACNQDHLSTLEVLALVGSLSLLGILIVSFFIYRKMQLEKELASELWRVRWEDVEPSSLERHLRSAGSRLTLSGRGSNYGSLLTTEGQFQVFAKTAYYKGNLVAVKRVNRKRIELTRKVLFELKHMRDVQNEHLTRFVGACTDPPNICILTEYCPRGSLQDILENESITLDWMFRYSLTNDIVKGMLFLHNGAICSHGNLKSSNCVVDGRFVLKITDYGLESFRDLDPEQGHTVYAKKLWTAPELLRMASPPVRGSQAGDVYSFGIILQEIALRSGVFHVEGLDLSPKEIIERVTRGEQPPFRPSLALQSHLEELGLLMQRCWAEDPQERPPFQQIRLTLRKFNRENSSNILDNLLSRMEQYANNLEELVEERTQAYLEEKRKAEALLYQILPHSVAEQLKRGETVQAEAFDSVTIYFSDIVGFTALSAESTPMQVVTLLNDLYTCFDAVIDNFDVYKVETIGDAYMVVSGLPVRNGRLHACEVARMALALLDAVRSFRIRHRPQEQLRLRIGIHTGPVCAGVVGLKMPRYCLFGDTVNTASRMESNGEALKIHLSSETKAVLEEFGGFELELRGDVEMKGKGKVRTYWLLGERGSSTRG
Nature of the experiment: Cellular cGMP production assay, human NPR1 expressing CHO-K1 cells (CisBio HTRF). The class given is cell-based. The conditions noted are these: for AC50: cGMP production, 30 min at 37° C., 12-point dose-response from 30 μM; for Human NPR1 Amax (% of ANP): maximum cGMP production as percentage of the maximum cGMP produced with ANP. In a few lines:
(§1)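 Cells receive IBMX (1 mM) assay buffer plus test compound over twelve threefold dilutions starting at 30 μM, and cGMP accumulates for 30 min at 37 °C. Lysates are then incubated one hour at room temperature with d2-labelled cGMP and cryptate-labelled antibody before time-resolved fluorescence reading.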

The next experiment has as its target monkey NPR1 (Macaca fascicularis, UniProt A0A7N9DBT9). Nature of the experiment: Cellular cGMP production assay, monkey NPR1 expressing CHO-K1 cells (CisBio HTRF). The experiment is classed as cell-based. The conditions noted are these: for Monkey NPR1 Amax (% of ANP): maximum cGMP production as percentage of the maximum cGMP produced with ANP. In a few lines:
as §1

Setting [1] is: cGMP production, monkey NPR1 CHO-K1 cells, 30 min at 37° C., 12-point dose-response from 30 μM, read-out: Monkey NPR1 AC50.

Chain of monkey NPR1 (A0A7N9DBT9 entry or part of it): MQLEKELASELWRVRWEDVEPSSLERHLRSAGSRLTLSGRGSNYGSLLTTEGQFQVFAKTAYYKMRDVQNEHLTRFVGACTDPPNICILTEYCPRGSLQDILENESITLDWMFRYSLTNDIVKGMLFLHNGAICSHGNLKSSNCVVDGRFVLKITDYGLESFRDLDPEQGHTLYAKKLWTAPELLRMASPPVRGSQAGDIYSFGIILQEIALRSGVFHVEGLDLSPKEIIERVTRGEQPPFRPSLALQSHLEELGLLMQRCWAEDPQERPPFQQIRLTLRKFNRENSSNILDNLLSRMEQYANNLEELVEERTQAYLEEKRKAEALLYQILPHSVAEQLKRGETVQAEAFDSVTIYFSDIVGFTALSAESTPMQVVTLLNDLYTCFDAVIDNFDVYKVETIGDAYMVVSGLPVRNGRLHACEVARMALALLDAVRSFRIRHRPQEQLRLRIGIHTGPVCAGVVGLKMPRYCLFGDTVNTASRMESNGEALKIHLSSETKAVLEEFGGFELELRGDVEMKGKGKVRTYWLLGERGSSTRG

In the case of `CC[C@H]([C@H]1CC[C@H](CC(=O)O)CC1)N(C)c1nc2c(c(N[C@@H](CN3CCC[C@H](C)C3)c3cnn(C)c3)n1)C[C@H](c1ccccc1)CC2` [Compound 67, 2-((1R,4r)-4-((R)-1-(methyl((R)-4-(((R)-1-(1-methyl-1H-pyrazol-4-yl)-2-((S)-3-methylpiperidin-1-yl)ethyl)amino)-6-phenyl-5,6,7,8-tetrahydroquinazolin-2-yl)amino)propyl)cyclohexyl)acetic acid], the figures for the concentration at half-maximal activity (AC50) on human NPR1 and on monkey NPR1 (setting [1]) were 229 nM and 155 nM, respectively. In addition, at human NPR1, the “Human NPR1 Amax (% of ANP)” value is listed as 95.228 % of ANP. For the same compound, on monkey NPR1 (monkey NPR1 CHO-K1 cells), the “Monkey NPR1 Amax (% of ANP)” value is 98.233 % of ANP.

Take `CC[C@@H](Nc1nc2c(c(N[C@@H](CN3CCCC3)c3ccccc3)n1)C[C@@H](c1ccccc1)CC2)[C@H]1CC[C@H](C(=O)O)CC1` [Compound 115, (1R,4r)-4-((R)-1-(((S)-6-phenyl-4-(((R)-1-phenyl-2-(pyrrolidin-1-yl)ethyl)amino)-5,6,7,8-tetrahydroquinazolin-2-yl)amino)propyl)cyclohexane-1-carboxylic acid]: on human NPR1, half-maximal activity (AC50) was put at 474 nM and the “Human NPR1 Amax (% of ANP)” value is 111.049 % of ANP. In addition, on monkey NPR1 (setting [1]), the AC50 worked out at 387 nM. Moreover, the “Monkey NPR1 Amax (% of ANP)” value on monkey NPR1 (monkey NPR1 CHO-K1 cells) was 106.285 % of ANP.

As to `CC[C@@H](N(C)c1nc2c(c(N[C@@H](CN3C4CCCC3CCC4)c3cnn(C)c3)n1)C[C@H](c1ccc(F)cc1)CC2)C12CC(C(=O)O)(C1)C2` [Compound 11, 3-((R)-1-(((R)-4-(((R)-2-((1S,5S)-9-azabicyclo[3.3.1]nonan-9-yl)-1-(1-methyl-1H-pyrazol-4-yl)ethyl)amino)-6-(4-fluorophenyl)-5,6,7,8-tetrahydroquinazolin-2-yl)(methyl)amino)propyl)bicyclo[1.1.1]pentane-1-carboxylic acid], at human NPR1, half-maximal activity (AC50) was put at 94 nM and the “Human NPR1 Amax (% of ANP)” value is 103.738 % of ANP. The activity on monkey NPR1 was half-maximal at 70 nM (AC50). The “Monkey NPR1 Amax (% of ANP)” value at monkey NPR1 (monkey NPR1 CHO-K1 cells) was 113.853 % of ANP.

Regarding `CC[C@H]([C@H]1CC[C@H](C(=O)O)CC1)N(C)c1nc2c(c(N[C@@H](CN3CCC[C@H](COC)C3)c3cnn(C)c3)n1)C[C@H](c1ccccc1)CC2` [Compound 83, (1R,4r)-4-((R)-1-(((R)-4-(((R)-2-((S)-3-(methoxymethyl)piperidin-1-yl)-1-(1-methyl-1H-pyrazol-4-yl)ethyl)amino)-6-phenyl-5,6,7,8-tetrahydroquinazolin-2-yl)(methyl)amino)propyl)cyclohexane-1-carboxylic acid], the AC50 was 282 nM at human NPR1 and 173 nM at monkey NPR1 (setting [1]). The “Human NPR1 Amax (% of ANP)” value on human NPR1 is on record as 98.117 % of ANP. The “Monkey NPR1 Amax (% of ANP)” value at monkey NPR1 (monkey NPR1 CHO-K1 cells) is 98.205 % of ANP.

On to `CC[C@@H](Nc1nc2c(c(N[C@@H](CN3CCC[C@H](C)C3)c3cnn(CC)c3)n1)CN(c1cccc(F)c1)CC2)[C@H]1CC[C@H](C(=O)O)CC1` [Compound 76, (1R,4r)-4-((R)-1-((4-(((R)-1-(1-ethyl-1H-pyrazol-4-yl)-2-((S)-3-methylpiperidin-1-yl)ethyl)amino)-6-(3-fluorophenyl)-5,6,7,8-tetrahydropyrido[4,3-d]pyrimidin-2-yl)amino)propyl)cyclohexane-1-carboxylic acid], for which, on human NPR1, the AC50 is 247 nM and the “Human NPR1 Amax (% of ANP)” value is recorded as 100.752 % of ANP. On monkey NPR1 (setting [1]), the AC50 came to 147 nM. Moreover, the “Monkey NPR1 Amax (% of ANP)” value at monkey NPR1 (monkey NPR1 CHO-K1 cells) is on record as 100.861 % of ANP.

In the case of `CC[C@@H](N(C)c1nc2c(c(N[C@@H](CN3C4CCCC3CC4)c3sc(C)nc3C)n1)C[C@H](c1cccc(F)c1)CC2)C12CC(C(=O)O)(C1)C2` [Compound 111, 3-((1R)-1-(((6R)-4-(((1S)-2-(8-azabicyclo[3.2.1]octan-8-yl)-1-(2,4-dimethylthiazol-5-yl)ethyl)amino)-6-(3-fluorophenyl)-5,6,7,8-tetrahydroquinazolin-2-yl)(methyl)amino)propyl)bicyclo[1.1.1]pentane-1-carboxylic acid], the AC50 on human NPR1 turned out to be 424 nM; at monkey NPR1, 271 nM. The “Human NPR1 Amax (% of ANP)” value on human NPR1 is given as 106.085 % of ANP. Further, the “Monkey NPR1 Amax (% of ANP)” value at monkey NPR1 (monkey NPR1 CHO-K1 cells) is on record as 103.264 % of ANP.

As for `CC[C@@H](Nc1nc2c(c(N[C@@H](CN3CCCCC3)c3cnc(C)s3)n1)C[C@H](c1ccccc1)CC2)[C@H]1CC[C@H](C(=O)O)CC1` [Compound 119, (1R,4r)-4-((R)-1-(((R)-4-(((S)-1-(2-methylthiazol-5-yl)-2-(piperidin-1-yl)ethyl)amino)-6-phenyl-5,6,7,8-tetrahydroquinazolin-2-yl)amino)propyl)cyclohexane-1-carboxylic acid], at human NPR1, the activity was half-maximal at 542 nM (AC50) and the “Human NPR1 Amax (% of ANP)” value is recorded as 89.681 % of ANP. In addition, the AC50 on monkey NPR1 (setting [1]) is 378 nM. Besides, at monkey NPR1 (monkey NPR1 CHO-K1 cells), the “Monkey NPR1 Amax (% of ANP)” value was 90.965 % of ANP.

Turning to `CC[C@H]([C@H]1CC[C@H](C(=O)O)CC1)N(C)c1nc2c(c(N[C@@H](CN3C4CCCC3CC4)c3ccn(C)n3)n1)C[C@H](c1cccc(F)c1)CC2` [Compound 105, (1R,4r)-4-((1R)-1-(((6R)-4-(((1S)-2-(8-azabicyclo[3.2.1]octan-8-yl)-1-(1-methyl-1H-pyrazol-3-yl)ethyl)amino)-6-(3-fluorophenyl)-5,6,7,8-tetrahydroquinazolin-2-yl)(methyl)amino)propyl)cyclohexane-1-carboxylic acid], the half-maximal activity concentration (AC50) on human NPR1 was 396 nM; on monkey NPR1, 272 nM. Besides, the “Human NPR1 Amax (% of ANP)” value on human NPR1 is recorded as 99.945 % of ANP. Moreover, the “Monkey NPR1 Amax (% of ANP)” value at monkey NPR1 (monkey NPR1 CHO-K1 cells) is on record as 97.086 % of ANP.

Consider `CC[C@@H](N(C)c1nc2c(c(N[C@@H](CN3CCCCCC3)c3cnn(C)c3)n1)C[C@H](c1cccc(F)c1)CC2)C12CC(C(=O)O)(C1)C2` [Compound 1, 3-((R)-1-(((R)-4-(((R)-2-(azepan-1-yl)-1-(1-methyl-1H-pyrazol-4-yl)ethyl)amino)-6-(3-fluorophenyl)-5,6,7,8-tetrahydroquinazolin-2-yl)(methyl)amino)propyl)bicyclo[1.1.1]pentane-1-carboxylic acid], for which, at human NPR1, the activity was half-maximal at 14 nM (AC50) and the “Human NPR1 Amax (% of ANP)” value is given as 93.788 % of ANP. Further, at monkey NPR1 (setting [1]), the AC50 was found to be 10 nM. Moreover, the “Monkey NPR1 Amax (% of ANP)” value at monkey NPR1 (monkey NPR1 CHO-K1 cells) is 97.462 % of ANP.

As to `CC[C@H]([C@H]1CC[C@H](C(=O)O)CC1)N(C)c1nc2c(c(N[C@@H](CN3C4CCCC3CC4)c3cnn(C)c3)n1)C[C@H](c1ccccc1)CC2` [Compound 103, (1R,4r)-4-((1R)-1-(((6R)-4-(((1R)-2-(8-azabicyclo[3.2.1]octan-8-yl)-1-(1-methyl-1H-pyrazol-4-yl)ethyl)amino)-6-phenyl-5,6,7,8-tetrahydroquinazolin-2-yl)(methyl)amino)propyl)cyclohexane-1-carboxylic acid], at human NPR1, the AC50 was determined as 393 nM and the “Human NPR1 Amax (% of ANP)” value was 101.239 % of ANP. On monkey NPR1, this compound displayed an AC50 of 350 nM. At monkey NPR1 (monkey NPR1 CHO-K1 cells), the “Monkey NPR1 Amax (% of ANP)” value is 106.030 % of ANP.

On to `CC[C@H]([C@H]1CC[C@H](C(=O)O)CC1)N(C)c1nc2c(c(N[C@@H](CN3C4CCCC3CCC4)c3cnn(C)c3)n1)C[C@H](c1ccccc1)CC2` [Compound 143, (1R,4r)-4-((R)-1-(((R)-4-(((R)-2-((1S,5S)-9-azabicyclo[3.3.1]nonan-9-yl)-1-(1-methyl-1H-pyrazol-4-yl)ethyl)amino)-6-phenyl-5,6,7,8-tetrahydroquinazolin-2-yl)(methyl)amino)propyl)cyclohexane-1-carboxylic acid], for which, at human NPR1, the AC50 amounted to 920 nM and the “Human NPR1 Amax (% of ANP)” value is recorded as 104.085 % of ANP. The AC50 on monkey NPR1 was determined as 694 nM. The “Monkey NPR1 Amax (% of ANP)” value at monkey NPR1 (monkey NPR1 CHO-K1 cells) is reported as 100.784 % of ANP.

With `CC(C)n1cc([C@H](CN2CCCCC2)Nc2nc(N[C@H](C)c3ccc(C(=O)O)cc3)nc3c2C[C@H](c2ccccc2)CC3)cn1` [Compound 171, 4-((R)-1-(((R)-4-(((R)-1-(1-isopropyl-1H-pyrazol-4-yl)-2-(piperidin-1-yl)ethyl)amino)-6-phenyl-5,6,7,8-tetrahydroquinazolin-2-yl)amino)ethyl)benzoic acid], at human NPR1, the activity was half-maximal at 2770 nM (AC50) and the “Human NPR1 Amax (% of ANP)” value is reported as 96.419 % of ANP. Besides, the AC50 at monkey NPR1 (setting [1]) was 2320 nM. Moreover, the “Monkey NPR1 Amax (% of ANP)” value on monkey NPR1 (monkey NPR1 CHO-K1 cells) was 83.963 % of ANP.
